These results are taken from patent US10082496B2, “Targeting emopamil binding protein (EBP) with small molecules that induce an abnormal feedback response by lowering endogenous cholesterol biosynthesis” (Board of Regents of the University of Texas System, priority 2014, dated 2018).

One experiment concerns DLD-1. The experiment can be described thus: In vitro APC inhibition assay (MTT), DLD-1. Format: cell-based. The conditions noted are these: Homo sapiens, DLD-1, DLD-1 (truncated APC). The procedure: (§1) The small molecule anti-cancer compounds were evaluated for the ability to inhibit the activity of APC in an in vitro assay.
Reagents required for the assay are: (3-[4,5-Dimethylthiazol-2-yl]-2,5-diphenyltetrazolium bromide; Thiazolyl blue; RPI corp., cat# M92050); RPMI-1640 or Medium of Choice (i.e. DMEM) without phenol red; 1M Hepes; 100 mM NaPyruvate; 1000× Gentamicin (50 mg/ml); 100× Penicillin/Streptomycin/Fungizone; 1×PBS; Triton X-100; 1N HCl and Isopropanol. To make the MTT solution (10×), MTT powder was dissolved into complete RPMI (or DMEM solution) to a final concentration of 5 mg/mL and was sterilized by filtration with a 0.2 μm filter. The MTT solubilization solution contained 10% Triton X-100, 0.1N and 80% isopropanol. MTT solution was diluted to 1× with complete medium at 12 mL per plate. The culture dishes (96 wells) were removed from the incubator and the media was discarded. […] The cells were removed from the incubator and the MTT solution was discarded.
(§2) Percent inhibition was determined relative to control reactions without inhibitor, and half maximal inhibitory concentration (IC50) values were determined using a standard four parameter fit to the inhibition data.

Another experiment concerns HCT-116. The experiment can be described thus: In vitro APC inhibition assay (MTT), HCT-116. The conditions noted are these: Homo sapiens, HCT-116, read-out: IC50 (nM) in HCT-116. Format: cell-based. As to the method:
as §1
Reagents required for the assay are: (3-[4,5-Dimethylthiazol-2-yl]-2,5-diphenyltetrazolium bromide; Thiazolyl blue; RPI corp., cat# M92050); RPMI-1640 or Medium of Choice (i.e. DMEM) without phenol red; 1M Hepes; 100 mM NaPyruvate; 1000× Gentamicin (50 mg/ml); 100× Penicillin/Streptomycin/Fungizone; 1×PBS; Triton X-100; 1N HCl and Isopropanol. To make the MTT solution (10×), MTT powder was dissolved into complete RPMI (or DMEM solution) to a final concentration of 5 mg/mL and was sterilized by filtration with a 0.2 μm filter. The MTT solubilization solution contained 10% Triton X-100, 0.1N and 80% isopropanol. MTT solution was diluted to 1× with complete medium at 12 mL per plate. The culture dishes (96 wells) were removed from the incubator and the media was discarded. The plates were washed three times with 1×PBS. 100 μl of 1×MTT solution was added to each well and the plates were incubated in a tissue culture incubator for 2-4 hours, depending on the cell line. The cells were removed from the incubator and the MTT solution was discarded. 200 μl of 1×MTT solubilization solution was added to each well using a multi-channel pipetor and the cells were placed on an orbital shaker for 10 minutes. The results were read on a microtiter plate reader (absorbance=570 nm, reference=700 nm) and data was exported.
as §2

Turning to `CC1CCN(C2CCN(S(=O)(=O)c3ccccc3OC(F)(F)F)CC2)CC1`, the IC50 in the experiment on DLD-1 came to 421 nM.

As for `C[C@H]1CC[N@+](C)(C2CCN(S(=O)(=O)c3ccccc3)CC2)CC1`, in the experiment on DLD-1, the IC50 is > 10000 nM. Turning to `Cc1cc(C)c(S(=O)(=O)N2CCC(N3CCCCC3)CC2)c(C)c1`, the IC50 with HCT-116 is > 10000 nM.

`Cc1cc(C)c(S(=O)(=O)N2CCC([N+]3(C)CCCC3)CC2)c(C)c1` displayed a half-maximal inhibitory concentration (IC50) with DLD-1 of 69 nM.

Turning to `CC1CCN(C2CCN(S(=O)(=O)c3ccc(OC(F)(F)F)c(C#CCCCCO)c3)CC2)CC1`, the IC50 with DLD-1 worked out at 205 nM. With `CC1CCN(C2CCN(S(=O)(=O)c3ccc(OC(F)(F)F)c(Br)c3)CC2)CC1`, the IC50 in the experiment with DLD-1 stood at 29 nM. With `CC(C)c1cc(C(C)C)c(S(=O)(=O)N2CCC(N3CCCC3)CC2)c(C(C)C)c1`, half-maximal inhibition in the experiment with DLD-1 (IC50) required 374 nM. As to `CC1CCN(C2CCN(S(=O)(=O)c3ccc(Cl)c(Cl)c3)CC2)CC1`, the half-inhibitory concentration (IC50) with HCT-116 is > 10000 nM.

As for `COc1ccc(S(=O)(=O)N2CCC(N3CCC(C)CC3)CC2)c(OC)c1`, the concentration for half-maximal inhibition (IC50) with DLD-1 was found to be 41 nM.

The compound `CC1CCN(C2CCN(S(=O)(=O)c3cccc(OC(F)(F)F)c3)CC2)CC1` returned an IC50 with DLD-1 of 56 nM. For the compound `CC1CCN(C2CCN(S(=O)(=O)c3cccc(-c4ccccc4)c3)CC2)CC1`, the half-inhibitory concentration (IC50) with HCT-116 is > 10000 nM. With `COc1ccc(S(=O)(=O)N2CCC(N3CCC(C)CC3)CC2)cc1` [drawing 83], the IC50 with HCT-116 was > 10000 nM.

As to `CC1CCN(C2CCN(S(=O)(=O)c3ccc(OC(F)F)cc3)CC2)CC1`, in the experiment on HCT-116, the IC50 was > 10000 nM. As to `CC1CCN(C2CCN(S(=O)(=O)c3ccc(-c4ccccc4F)cc3)CC2)CC1`, the IC50 in the experiment on HCT-116 is > 10000 nM.

Regarding `CC1CCN(C2CCN(Cc3ccc(OC(F)(F)F)cc3)CC2)CC1`, half-maximal inhibition in the experiment on DLD-1 (IC50) was put at 19 nM.

`CC1CCCN(C2CCN(S(=O)(=O)c3ccc(F)cc3)CC2)C1` (stereo not shown) registered an IC50 in the experiment on DLD-1 of 255 nM.

In the experiment on DLD-1, `C#CCC1CCN(C2CCN(S(=O)(=O)c3cccc(N=[N+]=[N-])c3)CC2)CC1` showed an IC50 of 1900 nM. Still for that read-out and setting: the same measure for `COc1ccc(S(=O)(=O)N2CCC([N+]3(C)CCCC3)CC2)cc1`: > 10000 nM; for `C#CCC1CCN(C2CCN(S(=O)(=O)c3ccc(N=[N+]=[N-])cc3)CC2)CC1`: 235 nM. `O=S(=O)(c1ccc(OC(F)(F)F)cc1)N1CCC(N2CCOCC2)CC1`: the half-maximal inhibitory concentration (IC50) in the experiment with DLD-1 was determined as 501 nM. Consider `Cc1nc(Cl)sc1S(=O)(=O)N1CCC(N2CCC(C)CC2)CC1`, for which the half-inhibitory concentration (IC50) with HCT-116 is > 10000 nM. `Cc1cc(C)c(S(=O)(=O)N2CCC(N3CCC(C(C)C)CC3)CC2)c(C)c1`: the half-maximal inhibitory concentration (IC50) in the experiment with HCT-116 is > 10000 nM. The same measure, in the same setting: the same measure for `Cc1cc(C)c(S(=O)(=O)N2CCC(N3CCC(CCC#N)CC3)CC2)c(C)c1`: > 10000 nM. The compound `CC1CCN(C2CCN(S(=O)(=O)c3ccc(Oc4ccccc4)cc3)CC2)CC1` had an IC50 in the experiment with DLD-1 of 253 nM. Still for that read-out and setting: the same measure for `CCCCC#Cc1cc(S(=O)(=O)N2CCC(N3CCC(C)CC3)CC2)ccc1OC(F)(F)F`: 147 nM; for `CC1CCCN(C2CCN(S(=O)(=O)c3ccc(Oc4ccccc4)cc3)CC2)C1` (stereo not shown): 244 nM; for `C[N+]1(C2CCN(S(=O)(=O)c3cccc4ccccc34)CC2)CCCC1`: 2300 nM.

For the compound `Cc1cc(C)c(S(=O)(=O)N2CCC(N3CCOCC3)CC2)c(C)c1`, the IC50 with HCT-116 was > 10000 nM.

Take `CC1CCN(C2CCN(S(=O)(=O)c3ccccc3Br)CC2)CC1`: the IC50 with HCT-116 was > 10000 nM. Consider `COc1ccc(Br)cc1S(=O)(=O)N1CCC(N2CCC(C)CC2)CC1`, for which the 50% inhibitory concentration (IC50) in the experiment on HCT-116 is > 10000 nM. `Cc1cc(C)c(S(=O)(=O)N2CCC(N3CCCC3)CC2)c(C)c1` returned a concentration for half-maximal inhibition (IC50) in the experiment with DLD-1 of 172 nM. For `Cc1cc(C)c(S(=O)(=O)N2CCC(N3CCC(Cc4ccccc4)CC3)CC2)c(C)c1`, the IC50 in the experiment with HCT-116 was > 10000 nM. Consider `CC1CCN(C2CCN(S(=O)(=O)c3cccc(Br)c3)CC2)CC1`, for which the half-inhibitory concentration (IC50) in the experiment on HCT-116 was > 10000 nM. Consider `CC1CCN(C2CCN(S(=O)(=O)c3ccc(Br)cc3OC(F)(F)F)CC2)CC1`, for which the IC50 with HCT-116 was > 10000 nM. Take `CC1CCN(C2CCN(S(=O)(=O)c3ccc(C#N)cc3)CC2)CC1`: in the experiment on HCT-116, the IC50 was > 10000 nM. Regarding `Cc1cc(C)c(S(=O)(=O)N2CCC(N3CCC(c4ccccc4)CC3)CC2)c(C)c1`, the IC50 with HCT-116 is > 10000 nM. For `C#CCC1CCN(C2CCN(S(=O)(=O)c3ccc(Br)cc3)CC2)CC1`, the IC50 with HCT-116 was > 10000 nM.

What is called IC50 is the point on the concentration scale where inhibition reaches its midpoint.
